Measured values from patent US7572806B2, “PPAR active compounds” (Plexxikon, Inc., priority 2003, dated 2009).
Where two headings read alike, the source gives them in different places.

Tests used:
PPARδ [1] = biological target: T1, PPARδ (Homo sapiens, UniProt Q03181); settings: cited from earlier work
T1 sequence (Q03181 1-441): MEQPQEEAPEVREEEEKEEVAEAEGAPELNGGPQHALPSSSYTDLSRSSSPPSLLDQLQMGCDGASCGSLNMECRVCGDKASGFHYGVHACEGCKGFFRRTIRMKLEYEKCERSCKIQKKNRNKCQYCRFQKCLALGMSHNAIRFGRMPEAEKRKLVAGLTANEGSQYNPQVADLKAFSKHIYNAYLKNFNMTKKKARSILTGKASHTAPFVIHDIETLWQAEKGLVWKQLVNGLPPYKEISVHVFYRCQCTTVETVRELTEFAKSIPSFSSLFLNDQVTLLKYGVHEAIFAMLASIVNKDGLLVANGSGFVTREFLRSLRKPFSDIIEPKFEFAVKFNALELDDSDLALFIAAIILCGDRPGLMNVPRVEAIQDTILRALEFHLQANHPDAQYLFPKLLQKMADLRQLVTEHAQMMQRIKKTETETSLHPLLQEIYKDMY

murine PPARα = biological target: T2, murine PPARα (Mus musculus, UniProt P23204); settings: cited from earlier work
T2 sequence (P23204 1-468): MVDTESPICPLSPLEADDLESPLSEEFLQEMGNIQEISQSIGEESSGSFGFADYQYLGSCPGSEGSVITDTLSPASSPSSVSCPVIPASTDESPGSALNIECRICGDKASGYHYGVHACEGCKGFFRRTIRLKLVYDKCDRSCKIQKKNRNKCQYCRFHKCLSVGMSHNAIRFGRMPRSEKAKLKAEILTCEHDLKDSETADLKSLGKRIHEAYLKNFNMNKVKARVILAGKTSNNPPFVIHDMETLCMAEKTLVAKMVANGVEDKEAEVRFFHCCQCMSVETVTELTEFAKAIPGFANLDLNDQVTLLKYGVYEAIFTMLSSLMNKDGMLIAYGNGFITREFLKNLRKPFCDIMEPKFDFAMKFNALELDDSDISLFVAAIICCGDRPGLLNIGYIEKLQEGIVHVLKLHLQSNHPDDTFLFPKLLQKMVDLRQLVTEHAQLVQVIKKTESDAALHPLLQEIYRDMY

PPARγ = biological target: T3, PPARγ (Homo sapiens, UniProt P37231); experiment: Alpha screen assay, agonist mode, ligand dependent interaction of PPAR with coactivator peptide; type: biochemical; settings: for EC50: Alpha screen
T3 sequence (P37231 1-505): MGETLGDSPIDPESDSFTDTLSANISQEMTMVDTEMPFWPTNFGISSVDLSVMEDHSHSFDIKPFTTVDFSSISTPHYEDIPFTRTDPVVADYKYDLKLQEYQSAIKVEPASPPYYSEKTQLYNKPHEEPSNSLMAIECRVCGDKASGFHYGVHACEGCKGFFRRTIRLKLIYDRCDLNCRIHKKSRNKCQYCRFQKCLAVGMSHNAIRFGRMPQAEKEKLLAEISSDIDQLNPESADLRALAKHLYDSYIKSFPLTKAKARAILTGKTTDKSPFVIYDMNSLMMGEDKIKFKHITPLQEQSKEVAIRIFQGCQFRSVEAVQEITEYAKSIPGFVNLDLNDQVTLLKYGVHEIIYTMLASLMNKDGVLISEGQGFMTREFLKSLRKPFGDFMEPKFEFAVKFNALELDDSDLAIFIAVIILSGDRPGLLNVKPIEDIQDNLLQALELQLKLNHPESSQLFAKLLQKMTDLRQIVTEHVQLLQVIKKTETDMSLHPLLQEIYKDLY
Protocol: (§1) The homogenous Alpha screen assay was used in the agonist mode to determine the ligand dependent interaction of the PPARs (α,δ,γ) with the coactivator peptides (SRC or DRIP205). Briefly 15 ul of the reaction mix (50 mM Tris pH 7.5, 50 mM Kcl, 0.05% Tween 20, 1 mM DTT, 0.1% BSA and 10 nM-200 nMPPAR and […] coactivator peptide) was added to the test compound (1 ul compound in DMSO) and preincubated for 1-6 hr. Next, 5 ul of the Alpha screen beads were added. The reactions were incubated for 2 hrs before taking the reading in the Fusion alpha instrument. In the antagonist mode compounds were assayed for inhibition of the co-activator binding signal caused by the control agonists for each receptor.
(§2) The controls agonists used were WY-14643(PPAR(α), farglitazar (PPAR(γ) and bezafibrate (PPAR(δ).
(§3) Using the assay above, compounds from Table 1 were analyzed for activity. The data reported in Table 2 was generated via the alpha screen assay and expressed in μMol/L. The data points from the Fusion alpha instrument were transferred to Assay Explorer® (MDL) to generate a curve and calculate the inflection point of the curve as EC50.

PPARα = biological target: T4, PPARα (Homo sapiens, UniProt Q07869); experiment: as above; type: biochemical
T4 sequence (Q07869 1-468): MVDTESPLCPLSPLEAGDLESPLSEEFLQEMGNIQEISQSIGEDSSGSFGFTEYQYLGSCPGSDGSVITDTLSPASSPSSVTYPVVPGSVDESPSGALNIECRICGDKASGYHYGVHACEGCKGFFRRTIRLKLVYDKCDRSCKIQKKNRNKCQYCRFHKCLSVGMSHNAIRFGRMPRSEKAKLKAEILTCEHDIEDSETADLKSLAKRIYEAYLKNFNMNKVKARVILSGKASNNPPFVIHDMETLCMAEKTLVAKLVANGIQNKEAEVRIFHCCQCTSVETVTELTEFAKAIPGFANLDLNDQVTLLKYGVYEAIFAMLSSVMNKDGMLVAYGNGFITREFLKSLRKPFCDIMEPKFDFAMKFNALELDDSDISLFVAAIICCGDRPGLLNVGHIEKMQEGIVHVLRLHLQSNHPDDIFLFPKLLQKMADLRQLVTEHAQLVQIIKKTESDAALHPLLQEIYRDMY
Protocol: as §1, §2, §3

PPARδ [2] = biological target: T1, PPARδ; experiment: as above; type: biochemical
Protocol: as §1, §2, §3

PPARs (α,δ,γ) = experiment: Alpha screen assay, pan-activity across the PPARs; type: biochemical, human; settings: PPARα, PPARδ and PPARγ
Protocol: as §1, §2, §3

[3] = large prospective trial; cited from earlier work
[4] = agonist mode, read-out: PPARγ Agonist
[5] = agonist mode, read-out: PPARα agonist
[6] = agonist mode, read-out: PPARδ Agonist

| Compound | EC50 (PPARγ; [4]) | EC50 (PPARα; [5]) | EC50 (PPARδ [2]; [6]) | further results |
| --- | --- | --- | --- | --- |
| CCCc1c(OCCCOc2ccc(OCC(=O)O)cc2)ccc(C(C)=O)c1O [L-165041] | – | – | – | agonist selectivity for PPARδ over PPARγ (PPARδ [1]): approximately 30 fold; activity on murine PPARα (murine PPARα): inactive |
| CCc1ccc2c(c1)c(CCC(=O)O)cn2S(=O)(=O)c1ccccc1 [compound 6, 3-(1-Benzenesulfonyl-5-ethyl-1H-indol-3-yl)-propionic acid] | ≤ 10 µM | > 10 µM | > 10 µM | EC50 (PPARγ; read-out: activity on PPARγ): ~8 µM; selectivity (PPARγ; PPARγ versus PPARα and δ): selective for PPARγ; EC50 (PPARα; read-out: activity on PPARα): ≥ 200 µM; EC50 (PPARδ [2]; read-out: activity on PPARδ): ≥ 200 µM |
| COc1ccc2c(c1)c(CCC(=O)O)cn2S(=O)(=O)c1ccccc1 [compound 29, 3-(1-Benzenesulfonyl-5-methoxy-1H-indol-3-yl)-propionic acid] | ≤ 10 µM | ≤ 10 µM | ≤ 10 µM | pan-activity (PPARs (α,δ,γ)): low micromolar or even sub-micromolar |
| O=C(O)CCc1nn(S(=O)(=O)c2ccccc2)c2ccccc12 [compound 39, 3-(1-Benzenesulfonyl-1H-indazol-3-yl)-propionic acid] | > 10 µM | > 10 µM | > 10 µM | – |
| CCCCOc1ccc(S(=O)(=O)n2cc(CCC(=O)O)c3cc(OC)ccc32)cc1 [compound 43, 3-[1-(4-Butoxy-benzenesulfonyl)-5-methoxy-1H-indol-3-yl]-propionic acid] | ≤ 10 µM | ≤ 10 µM | ≤ 10 µM | pan-activity (PPARs (α,δ,γ)): low micromolar or even sub-micromolar |
| COc1ccc2c(c1)c(CCC(=O)O)cn2S(=O)(=O)c1ccc(Cl)cc1 [compound 49, 3-[1-(4-Chloro-benzenesulfonyl)-5-methoxy-1H-indol-3-yl]-propionic acid] | ≤ 10 µM | ≤ 10 µM | ≤ 10 µM | – |
| COc1ccc2c(c1)c(CCC(=O)O)cn2S(=O)(=O)c1ccc(Cl)c(Cl)c1 [compound 53, 3-[1-(3,4-Dichloro-benzenesulfonyl)-5-methoxy-1H-indol-3-yl]-propionic acid] | ≤ 10 µM | ≤ 10 µM | ≤ 10 µM | pan-activity (PPARs (α,δ,γ)): low micromolar or even sub-micromolar |
| COc1ccc2c(c1)c(CCC(=O)O)cn2Cc1ccccc1 [compound 71, 3-(1-Benzyl-5-methoxy-1H-indol-3-yl)-propionic acid] | > 10 µM | ≤ 10 µM | > 10 µM | – |
| COc1ccc2c(c1)c(CCC(=O)O)cn2C(=S)Nc1ccccc1 [compound 75, 3-(5-Methoxy-1-phenylthiocarbamoyl-1H-indol-3-yl)-propionic acid] | > 10 µM | > 10 µM | > 10 µM | – |
| Cc1ccc(C)c(OCCCC(C)(C)C(=O)O)c1 [gemfibrozil] | – | – | – | reduction in cardiovascular events or death [3]: 22% |

Second part, led by results:

| EC50 (PPARγ; [4]) | EC50 (PPARα; [5]) | EC50 (PPARδ [2]; [6]) | Compound | further results |
| --- | --- | --- | --- | --- |
| ≤ 10 µM | ≤ 10 µM | ≤ 10 µM | CCCCc1ccc(S(=O)(=O)n2cc(CCC(=O)O)c3cc(OC)ccc32)cc1 [compound 77, 3-[1-(4-Butyl-benzenesulfonyl)-5-methoxy-1H-indol-3-yl]-propionic acid] | – |
| ≤ 10 µM | ≤ 10 µM | ≤ 10 µM | COc1ccc2c(c1)c(CCC(=O)O)cn2S(=O)(=O)c1cccc(OC(F)(F)F)c1 [compound 79, 3-[5-Methoxy-1-(3-trifluoromethoxy-benzenesulfonyl)-1H-indol-3-yl]-propionic acid] | – |
| > 10 µM | ≤ 10 µM | > 10 µM | COc1ccc2c(c1)c(CCC(=O)O)cn2C(=O)c1ccccc1 [compound 81, 3-(1-Benzoyl-5-methoxy-1H-indol-3-yl)-propionic acid] | – |
| ≤ 10 µM | ≤ 10 µM | ≤ 10 µM | CCOc1ccc2c(c1)c(CCC(=O)O)cn2S(=O)(=O)c1ccccc1 [compound 82, 3-(1-Benzenesulfonyl-5-ethoxy-1H-indol-3-yl)-propionic acid] | – |
| > 10 µM | > 10 µM | > 10 µM | COc1ccc2c(c1)c(CCC(=O)O)cn2C(=O)Nc1ccccc1 [compound 85, 3-(5-Methoxy-1-phenylcarbamoyl-1H-indol-3-yl)-propionic acid] | – |
| ≤ 10 µM | ≤ 10 µM | > 10 µM | O=C(O)CCc1cn(S(=O)(=O)c2ccccc2)c2ccc(-c3ccsc3)cc12 [compound 92, 3-(Benzenesulfonyl-5-thiophen-3-yl-1H-indol-3-yl)-propionic acid] | – |
| > 10 µM | > 10 µM | > 10 µM | O=C(O)CCc1cn(S(=O)(=O)c2ccccc2)c2ccccc12 [compound 97, 3-(1-Benzenesulfonyl-1H-indol-3-yl)-propionic acid] | – |
